The data set relates to rodent carcinogenicity bioassays, tumor incidence. Kind of data set: CCRIS carcinogenicity studies. In a few lines:
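NCI-built, expert-reviewed records of carcinogenicity and related test outcomes (mutagenicity, tumor promotion/inhibition) compiled from published and report sources, historical span 1985-2011, not updated.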

Activity calls are given as the source filed them. The rule behind the calls is not given here.

On to `C=CCN(N=O)C(N)=O`, for which the carcinogen call runs as follows: (Species: RAT, Strain/Sex: F344/FEMALE, Route: GAVAGE, Dose: 0, 13 MG/ML (TOTAL DOSE 0; 1.2 MMOL) IN 2 ML ETHYL ACETATE AND CORN OIL (1:2) 2/WK FOR 30 WK (STUDY DURATION: LIFETIME), Dose: 0, 13 MG/ML (TOTAL DOSE 0; 1.2 MMOL) IN 2 ML ETHYL ACETATE AND CORN OIL (1:2) 2/WK FOR 30 WK (STUDY DURATION: LIFETIME), Tumor Site: Type of Lesion: FORESTOMACH: SQUAMOUS CELL CARCINOMA, MAMMARY GLAND: TUMOR) “active; positive”; (Species: RAT, Strain/Sex: F344/FEMALE, Route: GAVAGE, Dose: 0, 13 MG/ML IN 0.2 ML ETHYL ACETATE AND CORN OIL 2/WK FOR 30 WK (STUDY DURATION: LIFESPAN), Tumor Site: Type of Lesion: FORESTOMACH: TUMOR, MAMMARY GLAND: TUMOR) “active; positive”; (Species: RAT, Strain/Sex: F344/MALE, Route: GAVAGE, Dose: 0, 13 MG/ML (TOTAL DOSE 0; 1.2 MMOL) IN 2 ML ETHYL ACETATE AND CORN OIL (1:2) 2/WK FOR 30 WK (STUDY DURATION: LIFETIME), Dose: 0, 13 MG/ML (TOTAL DOSE 0; 1.2 MMOL) IN 2 ML ETHYL ACETATE AND CORN OIL (1:2) 2/WK FOR 30 WK (STUDY DURATION: LIFETIME), Tumor Site: Type of Lesion: FORESTOMACH: SQUAMOUS CELL CARCINOMA, LUNG: TUMOR, COLON: TUMOR, ZYMBAL GLAND: TUMOR, Tumor Site: Type of Lesion: FORESTOMACH: SQUAMOUS CELL CARCINOMA, LUNG: TUMOR, COLON: TUMOR, ZYMBAL GLAND: TUMOR) “active; positive”; (Species: RAT, Strain/Sex: F344/MALE, Route: GAVAGE, Dose: 0, 13 MG/ML IN 0.2 ML ETHYL ACETATE AND CORN OIL 2/WK FOR 30 WK (STUDY DURATION: LIFESPAN), Tumor Site: Type of Lesion: FORESTOMACH: TUMOR, LUNG: COLON: TUMOR, ZYMBAL GLAND: TUMOR, Tumor Site: Type of Lesion: FORESTOMACH: TUMOR, LUNG: COLON: TUMOR, ZYMBAL GLAND: TUMOR) “active; positive”.
In the case of `OC(c1ccc(Cl)cc1)(c1ccc(Cl)cc1)C(Cl)(Cl)Cl`, the carcinogen call (Species: MOUSE, Strain/Sex: B6C3F1/FEMALE, Route: ORAL, Dose: 0, 122, 243 PPM IN DIET, Dose: 0, 122, 243 PPM IN DIET) is “inactive; negative”; the carcinogen call (Species: MOUSE, Strain/Sex: B6C3F1/MALE, Route: ORAL, Dose: 0, 264, 528 PPM IN DIET, Dose: 0, 264, 528 PPM IN DIET, Tumor Site: Type of Lesion: LIVER: HEPATOCELLULAR CARCINOMA OR HEPATOCELLULAR ADENOMA) is “active; positive”; the carcinogen call (Species: RAT, Strain/Sex: OSBORNE-MENDEL/FEMALE, Route: ORAL, Dose: 0, 380, 760 PPM IN DIET, Dose: 0, 380, 760 PPM IN DIET) is “inactive; negative”; the carcinogen call (Species: RAT, Strain/Sex: OSBORNE-MENDEL/MALE, Route: ORAL, Dose: 0, 471, 942 PPM IN DIET, Dose: 0, 471, 942 PPM IN DIET) is “inactive; negative”.
Consider `ClC(Cl)(Cl)Cl`, for which the carcinogen call was “inactive; negative” (Species: FISH, Strain/Sex: RAINBOW TROUT, Route: INTRAPERITONEAL, Dose: 0, 1 ML/KG AT 21 D INTERVALS FOR A TOTAL OF 7 DOSES (STUDY DURATION: 6 MO)); “active; positive” (Species: MOUSE, Route: ORAL, GAVAGE, Tumor Site: Type of Lesion: LIVER: HEPATOMA, HEPATOCELLULAR CARCINOMA); “active; positive” (Species: Mouse, Strain/Sex: BDF1/Female (50/group), Route: Inhalation, Dose: 0, 5, 25, 125 ppm (v/v) 6 hr/d, 5 d/wk for 104 wk, Dose: 0, 5, 25, 125 ppm (v/v) 6 hr/d, 5 d/wk for 104 wk, Tumor Site: Type of Lesion: Liver: hepatocellular carcinoma (2/50; 1/49; 33/50; 48/49), hepatocellular adenoma (2/50; 8/49; 17/50; 5/49). Adrenal Gl, Tumor Site: Type of Lesion: Liver: hepatocellular carcinoma (2/50; 1/49; 33/50; 48/49), hepatocellular adenoma (2/50; 8/49; 17/50; 5/49). Adrenal Gl); “active; positive (dose related metastasis of liver tumors to lung)” (Species: Mouse, Strain/Sex: BDF1/Male (50/group), Route: Inhalation, Dose: 0, 5, 25, 125 ppm (v/v) 6 hr/d, 5 d/wk for 104 wk, Dose: 0, 5, 25, 125 ppm (v/v) 6 hr/d, 5 d/wk for 104 wk, Tumor Site: Type of Lesion: Liver: hepatocellular carcinoma (17/50; 12/50; 44/50; 47/50), hepatocellular adenoma (9/50; 10/50; 27/50; 16/50). Adrena, Tumor Site: Type of Lesion: Liver: hepatocellular carcinoma (17/50; 12/50; 44/50; 47/50), hepatocellular adenoma (9/50; 10/50; 27/50; 16/50). Adrena); “active; positive” (Species: RAT, Route: SUBCUTANEOUS, Tumor Site: Type of Lesion: LIVER: HEPATOCELLULAR CARCINOMA); “active; positive” (Species: Rat, Strain/Sex: F344/Female (50/group), Route: Inhalation, Dose: 0, 5, 25, 125 ppm (v/v) 6 hr/d, 5 d/wk for 104 wk, Dose: 0, 5, 25, 125 ppm (v/v) 6 hr/d, 5 d/wk for 104 wk, Tumor Site: Type of Lesion: Liver: hepatocellular carcinoma (0/50; 0/50; 3/50; 15/50), hepatocellular adenoma (0/50; 0/50; 40/50), Tumor Site: Type of Lesion: Liver: hepatocellular carcinoma (0/50; 0/50; 3/50; 15/50), hepatocellular adenoma (0/50; 0/50; 40/50)). In addition, the carcinogen call (Species: Rat, Strain/Sex: F344/Male (50/group), Route: Inhalation, Dose: 0, 5, 25, 125 ppm (v/v) 6 hr/d, 5 d/wk for 104 wk, Dose: 0, 5, 25, 125 ppm (v/v) 6 hr/d, 5 d/wk for 104 wk, Tumor Site: Type of Lesion: Liver: hepatocellular carcinoma (1/50; 0/50; 32/50), hepatocellular adenoma (0/50; 1/50; 21/50), Tumor Site: Type of Lesion: Liver: hepatocellular carcinoma (1/50; 0/50; 32/50), hepatocellular adenoma (0/50; 1/50; 21/50)) is “active; positive”.
As for `Oc1ccc2ccccc2c1N=Nc1ccc(N=Nc2ccccc2)cc1`, the carcinogen call was “inactive; negative” (Species: MOUSE, Strain/Sex: SWISS-WEBSTER/FEMALE, Route: DERMAL, Dose: 0, 1% IN 0.1 ML 0.1% SODIUM LAURYL SULFATE 1/WK FOR 18 MO (STUDY DURATION: 18 MO)) and “inactive; negative” (Species: MOUSE, Strain/Sex: SWISS-WEBSTER/MALE, Route: DERMAL, Dose: 0, 1% IN 0.1 ML 0.1% SODIUM LAURYL SULFATE 1/WK FOR 18 MO (STUDY DURATION: 18 MO)).
As for `O=CNC(N1CCOCC1)C(Cl)(Cl)Cl` (centres undefined), the carcinogen call is, setting by setting: (Species: RAT, Strain/Sex: WISTAR/FEMALE, Route: ORAL, Dose: 0, 67, 330, 665 MG/KG IN DIET LESS THAN 2 YR (STUDY DURATION: LESS THAN 2 YR), Dose: 0, 67, 330, 665 MG/KG IN DIET LESS THAN 2 YR (STUDY DURATION: LESS THAN 2 YR)) “inactive; negative”; (Species: RAT, Strain/Sex: WISTAR/MALE, Route: ORAL, Dose: 0, 67, 330, 665 MG/KG IN DIET LESS THAN 2 YR (STUDY DURATION: LESS THAN 2 YR), Dose: 0, 67, 330, 665 MG/KG IN DIET LESS THAN 2 YR (STUDY DURATION: LESS THAN 2 YR)) “inactive; negative”.
`COP(=O)(OC)OC`: the carcinogen call reads like this: (Species: MOUSE, Strain/Sex: B6C3F1/FEMALE, Route: GAVAGE, Dose: 0, 250, 500 MG/KG 3/WK FOR 103 WK, Dose: 0, 250, 500 MG/KG 3/WK FOR 103 WK, Tumor Site: Type of Lesion: UTERUS (ENDOMETRIUM): ADENOCARCINOMA (NOS)) “active; positive”; (Species: MOUSE, Strain/Sex: B6C3F1/MALE, Route: GAVAGE, Dose: 0, 250, 500 MG/KG 3/WK FOR 103 WK, Dose: 0, 250, 500 MG/KG 3/WK FOR 103 WK) “inactive; negative”; (Species: RAT, Strain/Sex: F344/FEMALE, Route: GAVAGE, Dose: 0, 50, 100 MG/KG 3/WK FOR 104 WK (STUDY DURATION: 105 WK), Dose: 0, 50, 100 MG/KG 3/WK FOR 104 WK (STUDY DURATION: 105 WK)) “inactive; negative”; (Species: RAT, Strain/Sex: WISTAR/FEMALE, Route: ORAL, Dose: 0, 1, 10, 100 MG/KG/D IN DRINKING WATER FOR DURATION OF STUDY, HIGH DOSE REDUCED TO 50 MG/KG IN WK 54 (STUDY DURATION: 3, Dose: 0, 1, 10, 100 MG/KG/D IN DRINKING WATER FOR DURATION OF STUDY, HIGH DOSE REDUCED TO 50 MG/KG IN WK 54 (STUDY DURATION: 3) “inactive; negative”; (Species: RAT, Strain/Sex: WISTAR/MALE, Route: ORAL, Dose: 0, 1, 10, 100 MG/KG/D IN DRINKING WATER FOR DURATION OF STUDY, HIGH DOSE REDUCED TO 50 MG/KG IN WK 54 (STUDY DURATION: 3, Dose: 0, 1, 10, 100 MG/KG/D IN DRINKING WATER FOR DURATION OF STUDY, HIGH DOSE REDUCED TO 50 MG/KG IN WK 54 (STUDY DURATION: 3) “inactive; negative”.

For the origin of these results see PubChem BioAssay AID1259411 (Chemical Carcinogenesis Research Information System (CCRIS), 2018).
